Here are results for three molecules from paper PMC2900928 (Cell, 2010).

SMILES strings stand for the structures.

By Kd is commonly meant the equilibrium constant for the complex coming apart. Low values mean a tighter complex, high ones a looser complex.

For one assay, the target named is T1, BT1765 (Bacteroides thetaiotaomicron, UniProt Q8A6W1).
T1 sequence (Q8A6W1 26-627): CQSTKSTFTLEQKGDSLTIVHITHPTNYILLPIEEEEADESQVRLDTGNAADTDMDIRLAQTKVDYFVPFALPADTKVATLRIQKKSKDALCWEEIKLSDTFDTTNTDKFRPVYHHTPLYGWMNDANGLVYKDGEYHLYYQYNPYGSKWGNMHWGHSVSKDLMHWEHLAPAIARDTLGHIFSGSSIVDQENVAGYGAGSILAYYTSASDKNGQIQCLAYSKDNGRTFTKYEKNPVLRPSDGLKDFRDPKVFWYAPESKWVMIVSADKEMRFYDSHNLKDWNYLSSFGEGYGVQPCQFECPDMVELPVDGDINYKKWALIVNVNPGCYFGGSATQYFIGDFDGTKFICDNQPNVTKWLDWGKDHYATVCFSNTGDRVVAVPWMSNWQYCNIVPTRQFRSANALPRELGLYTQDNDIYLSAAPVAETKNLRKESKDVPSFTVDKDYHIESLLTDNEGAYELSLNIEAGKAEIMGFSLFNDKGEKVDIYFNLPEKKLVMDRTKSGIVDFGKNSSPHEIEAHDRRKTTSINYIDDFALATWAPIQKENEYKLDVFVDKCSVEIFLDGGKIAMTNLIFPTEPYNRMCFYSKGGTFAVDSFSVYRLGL
In words: fructose release. It counts as biochemical. To be noted: 20 mM Tris-HCl, pH 8.0, 37°C.

Another assay deals with T2, BT1754-PD (Bacteroides thetaiotaomicron, UniProt Q8A6X1).
T2 sequence (Q8A6X1 29-343): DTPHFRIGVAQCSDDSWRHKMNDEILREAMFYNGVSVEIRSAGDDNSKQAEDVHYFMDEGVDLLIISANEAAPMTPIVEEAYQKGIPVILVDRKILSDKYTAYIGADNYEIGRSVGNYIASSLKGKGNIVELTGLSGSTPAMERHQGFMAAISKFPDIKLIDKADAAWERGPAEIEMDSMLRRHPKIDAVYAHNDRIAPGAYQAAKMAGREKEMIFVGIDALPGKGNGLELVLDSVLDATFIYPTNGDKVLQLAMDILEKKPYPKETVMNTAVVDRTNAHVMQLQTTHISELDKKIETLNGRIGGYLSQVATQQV
The assay can be described thus: isothermal titration calorimetry. It counts as binding. To be noted: 20 mM Tris-HCl, pH 8.0; 1:1 stoichiometry, single site. Background: In ITC the heat of successive injections is recorded.

The next assay deals with T3, BT1759 (Bacteroides thetaiotaomicron, UniProt Q8A6W7).
T3 sequence (Q8A6W7 29-610): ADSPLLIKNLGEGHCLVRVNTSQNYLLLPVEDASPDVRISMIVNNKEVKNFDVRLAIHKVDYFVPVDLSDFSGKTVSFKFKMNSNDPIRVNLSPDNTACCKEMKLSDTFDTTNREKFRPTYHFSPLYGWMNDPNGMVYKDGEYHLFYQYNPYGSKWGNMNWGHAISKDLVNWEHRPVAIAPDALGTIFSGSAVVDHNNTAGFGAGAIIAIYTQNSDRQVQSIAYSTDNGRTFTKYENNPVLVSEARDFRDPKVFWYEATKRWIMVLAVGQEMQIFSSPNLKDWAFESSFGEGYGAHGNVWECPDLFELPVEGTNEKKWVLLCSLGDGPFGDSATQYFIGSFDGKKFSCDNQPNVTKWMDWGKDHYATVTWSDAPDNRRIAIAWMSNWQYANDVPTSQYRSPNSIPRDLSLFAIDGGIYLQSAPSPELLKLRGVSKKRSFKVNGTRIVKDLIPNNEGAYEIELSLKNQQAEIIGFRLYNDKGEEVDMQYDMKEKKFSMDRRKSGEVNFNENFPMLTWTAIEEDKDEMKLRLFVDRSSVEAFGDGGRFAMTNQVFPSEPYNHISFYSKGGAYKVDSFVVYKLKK
In words: fructose release. It counts as biochemical. To be noted: 20 mM Tris-HCl, pH 8.0, 37°C.

Another assay deals with T4, BT3082 (Bacteroides thetaiotaomicron, UniProt Q8A373).
T4 sequence (Q8A373 21-548): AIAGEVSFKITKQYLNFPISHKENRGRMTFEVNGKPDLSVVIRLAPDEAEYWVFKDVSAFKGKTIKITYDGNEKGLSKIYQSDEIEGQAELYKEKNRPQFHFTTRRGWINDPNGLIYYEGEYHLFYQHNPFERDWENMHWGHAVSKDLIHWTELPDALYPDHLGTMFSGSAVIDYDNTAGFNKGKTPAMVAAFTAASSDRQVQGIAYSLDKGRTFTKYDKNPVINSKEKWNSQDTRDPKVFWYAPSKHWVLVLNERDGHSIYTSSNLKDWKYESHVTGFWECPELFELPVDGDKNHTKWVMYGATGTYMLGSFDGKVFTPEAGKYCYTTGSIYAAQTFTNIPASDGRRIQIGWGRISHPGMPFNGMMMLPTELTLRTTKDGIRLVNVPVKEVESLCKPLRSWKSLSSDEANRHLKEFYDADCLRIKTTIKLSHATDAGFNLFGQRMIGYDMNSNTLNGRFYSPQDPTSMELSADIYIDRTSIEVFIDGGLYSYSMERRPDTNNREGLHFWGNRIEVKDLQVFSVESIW
In words: fructose release. Type of assay: biochemical. As to conditions: 20 mM Tris-HCl, pH 8.0, 37°C.

As for `OC[C@H]1O[C@@](CO)(OC[C@H]2OC(O)(CO)[C@@H](O)[C@@H]2O)[C@@H](O)[C@@H]1O` (some centres unmarked) [L2, levanbiose], the KM entry at BT1765 is recorded as “the enzyme is also able to efficiently degrade levanbiose (Table S2)”. At BT1754-PD, `OCC1(O)OC[C@@H](O)[C@@H](O)[C@@H]1O` (some centres unmarked) [fructose] gave a Kd of about 2000 nM. Regarding `OC[C@H]1O[C@@](CO)(O[C@H]2O[C@H](CO)[C@@H](O)[C@H](O)[C@H]2O)[C@@H](O)[C@@H]1O` [sucrose], the KM entry on BT1765 was “BT1765 prefers sucrose over any of the other oligo- or polysaccharides tested”; on BT1759, “BT1759 and BT3082 also cleave sucrose”; on BT3082, “BT1759 and BT3082 also cleave sucrose”.
